We go through 3 compounds from patent EP4745118A1, “HYDROXAMIC ACID COMPOUND OR PHARMACEUTICALLY ACCEPTABLE SALT THEREOF, AND USE THEREOF AND PREPARATION METHOD THEREFOR” (priority 2023, dated 2025).

In experiment [1] the test system is Citrobacter freundii. Briefly: In vitro antibacterial activity, agar dilution method (MIC). Type of experiment: cell-based. As for the experimental part: (§1) According to the relevant operating procedures of the Clinical Laboratory Standards Institute (CLSI) in the United States, an antimicrobial susceptibility testing was conducted using the agar dilution method. […]. The agar was allowed to solidify and set aside for later use.
(§2) The test bacteria were propagated in broth and adjusted to a turbidity of 0.5 McFarland (approximately 1-2 × 10^8 CFU/mL) using a turbidimeter before inoculation. The 0.5 McFarland bacterial solution was then diluted 10-fold in broth (approximately 1-2 × 10^7 CFU/mL). A multipoint inoculator was used to inoculate the above bacterial solution onto a series of plates containing different concentrations of drugs (with an inoculation amount of approximately 10^4 CFU per inoculation site). After incubation at a constant temperature of 35°C for 18 hours, results were observed. The minimum concentration of drugs contained in sterile growth plates was determined as the Minimal Inhibitory Concentration (MIC).

The test system of experiment [2] is Enterobacter aerogenes. Described as above. The experiment is classed as cell-based. How it is done: as §1, §2
Experiment [3] has as its system Escherichia coli. Described as above. Type of experiment: cell-based. The conditions noted are these: agar dilution, 35°C. As for the experimental part: as §1, §2
Experiment [4] concerns Klebsiella pneumoniae. The experiment is described as above. Particulars: agar dilution, 35°C. Type of experiment: cell-based. How it is done:
as §1, §2
A general note: In agar dilution the substance is mixed into plates at graded concentrations.

The test system of experiment [5] is Pantoea agglomerans. The description is as above. Type of experiment: cell-based. How it is done:
as §1, §2

For experiment [6], the system named is Proteus mirabilis. Described as above. The experiment is classed as cell-based. As for the experimental part:
as §1, §2

Experiment [7] has as its system Proteus vulgaris. The experiment is described as above. Type of experiment: cell-based. How it is done: as §1, §2
The subject of experiment [8] is Pseudomonas aeruginosa. The description is as above. The experiment is classed as cell-based. As for the experimental part:
as §1, §2

In experiment [9] the test system is Serratia marcescens. The experiment is described as above. Type of experiment: cell-based. As for the experimental part:
as §1, §2

For experiment [10], the system named is Enterobacter cloacae. The description is as above. The experiment is classed as cell-based. How it is done:
According to the relevant operating procedures of the Clinical Laboratory Standards Institute (CLSI) in the United States, an antimicrobial susceptibility testing was conducted using the agar dilution method. […] The agar was allowed to solidify and set aside for later use.
as §2

Experiment [11] concerns Shigella flexneri. Described as above. The experiment is classed as cell-based. The conditions noted are these: 18 hours. How it is done:
According to the relevant operating procedures of the Clinical Laboratory Standards Institute (CLSI) in the United States, an antimicrobial susceptibility testing was conducted using the agar dilution method. A 1920 µg/mL stock solution was serially diluted twofold with sterile water to obtain dilutions of 960, 480, 240, 120, 60, 30, 15, 7.5, 3.75, 1.88, 0.94, 0.47 µg/mL, and 1 mL of the dilution was taken respectively from the dilutions with different concentrations and added to a Petri dish, to which 14 mL of melted MH agar medium was added and mixed thoroughly, and the final concentration of the drug in the petri dish is 128, 64, 32, 16, 8, 4, 2, 1, 0.5, 0.25, 0.12, 0.06, and 0.03 µ g/mL, respectively. The agar was allowed to solidify and set aside for later use.
as §2

Experiment [12] relates to Escherichia coli ATCC BAA2469 (CRE, NDM-1-producing). Briefly: In vivo antibacterial activity, intraperitoneal infection in mice (survival over 7 days). Particulars: for Animal survival rate / Number of surviving animals: mice, one intravenous administration 1 hour post-infection, 7 days; for Number of surviving animals: 5 animals per group. As for the experimental part: Mice were randomly grouped based on body weight, with 5 mice in each group, regardless of gender. The infectious bacteria was Escherichia coli ATCC BAA2469 (CRE, NDM-1-producing). The test bacterial solution was diluted with 5% high-activity dry yeast. Mice received intraperitoneal injection of 0.5 mL of 100% minimum lethal dose (100% MLD) bacterial solution. One intravenous administration was given at 1 hour post-infection at a dose volume of 10 mL/kg. Animal survival numbers were observed over 7 days, and survival rates were calculated.

Setting [13] is: Citrobacter freundii ATCC 43864, agar dilution, 35°C, 18 hours.
Where [14] appears, read: Enterobacter aerogenes ATCC 13048, agar dilution, 35°C, 18 hours.
Setting [15] is: Escherichia coli 13-43 (mcr-1), 18 hours.
The mark [16] stands for this setting: Escherichia coli 17-R28 (CRE, NDM-1-producing), 18 hours.
The mark [17] stands for this setting: Escherichia coli ATCC 2469 (CRE, NDM-1-producing), 18 hours.
Setting [18] is: Escherichia coli ATCC 35218 (ESBLs-producing), 18 hours.
Setting [19] is: Klebsiella pneumoniae 09-20 (mcr-1), 18 hours.
[20] abbreviates: Klebsiella pneumoniae 17-R27 (CRE), 18 hours.
[21] abbreviates: Klebsiella pneumoniae 18-8 (ESBLs-producing), 18 hours.
[22] abbreviates: Klebsiella pneumoniae ATCC 700603 (ESBLs-producing), 18 hours.
Where [23] appears, read: Klebsiella pneumoniae ATCC BAA-2146 (CRE, NDM-1-producing), 18 hours.
Setting [24] is: Pantoea agglomerans ATCC 27993, agar dilution, 35°C, 18 hours.
The mark [25] stands for this setting: Proteus mirabilis ATCC 49565, agar dilution, 35°C, 18 hours.
[26] abbreviates: Proteus vulgaris ATCC 29905, agar dilution, 35°C, 18 hours.
The mark [27] stands for this setting: Pseudomonas aeruginosa PAO1, agar dilution, 35°C, 18 hours.
Where [28] appears, read: Serratia marcescens ATCC 21074, agar dilution, 35°C, 18 hours.
[29] abbreviates: Enterobacter cloacae CDC1000654 (NDM-1-producing), agar dilution, 35°C, 18 hours.
Where [30] appears, read: Shigella flexneri ATCC 12022, 35°C.

Converted amounts (≈) assume the structure as drawn. Read-outs that look alike come from different tables or passages of the source.

What is called MIC is the smallest concentration in the dilution series that meets the test's criterion for growth inhibition.

For `CN(C)c1cc(NC(=O)CNC(C)(C)C)c(O)c2c1C[C@H]1C[C@H]3[C@H](N(C)C)C(O)=C(C(N)=O)C(=O)[C@@]3(O)C(O)=C1C2=O` [Tigecycline], the MIC in [1] (Citrobacter freundii, ATCC43864, 18 h) was found to be 1 µg/mL (≈ 1.71 µM); in experiment [2] (Klebsiella aerogenes, ATCC13048, 18 h), 1 µg/mL (≈ 1.71 µM); in [3] (Escherichia coli, 18 h, Escherichia coli 13-43 (mcr-1)), 1 µg/mL (≈ 1.71 µM); in experiment [3] (Escherichia coli, 18 h, Escherichia coli 17-R28 (CRE, NDM-1-producing)), 0.12 µg/mL (≈ 0.205 µM); in experiment [3] (Escherichia coli, ATCC2469, 18 h, Escherichia coli ATCC 2469 (CRE, NDM-1-producing), 18 hours) it was 0.5 µg/mL (≈ 0.854 µM); in [3] (Escherichia coli, ATCC35218, 18 h, Escherichia coli ATCC 35218 (ESBLs-producing), 18 hours, read-out: MIC) it was 0.12 µg/mL (≈ 0.205 µM). The minimum inhibitory concentration (MIC) in experiment [4] (Klebsiella pneumoniae, 18 h, Klebsiella pneumoniae 09-20 (mcr-1)) turned out to be 2 µg/mL (≈ 3.41 µM); in experiment [4] (Klebsiella pneumoniae, 18 h, Klebsiella pneumoniae 17-R27 (CRE)), 2 µg/mL (≈ 3.41 µM); in experiment [4] (Klebsiella pneumoniae, 18 h, Klebsiella pneumoniae 18-8 (ESBLs-producing), 18 hours, read-out: MIC), 2 µg/mL (≈ 3.41 µM); in experiment [4] (Klebsiella pneumoniae, ATCC700603, 18 h, Klebsiella pneumoniae ATCC 700603 (ESBLs-producing), 18 hours, read-out: MIC), 8 µg/mL (≈ 13.7 µM); in experiment [4] (Klebsiella pneumoniae, ATCCBAA2146, 18 h, Klebsiella pneumoniae ATCC BAA-2146 (CRE, NDM-1-producing), 18 hours), 8 µg/mL (≈ 13.7 µM); in experiment [5] (Pantoea agglomerans, ATCC27993, 18 h) it was 0.5 µg/mL (≈ 0.854 µM). Moreover, the minimum inhibitory concentration (MIC) worked out at 4 µg/mL (≈ 6.83 µM) in experiment [6] (Proteus mirabilis, ATCC49565, 18 h); 2 µg/mL (≈ 3.41 µM) in experiment [7] (Proteus vulgaris, ATCC29905, 18 h); 16 µg/mL (≈ 27.3 µM) in [8] (Pseudomonas aeruginosa, PAO1, 18 h); 2 µg/mL (≈ 3.41 µM) in experiment [9] (Serratia marcescens, ATCC21074, 18 h); 8 µg/mL (≈ 13.7 µM) in experiment [10] (Enterobacter cloacae, 18 h); 0.12 µg/mL (≈ 0.205 µM) in experiment [11] (ATCC12022, Shigella flexneri ATCC 12022, 35°C, read-out: MIC).

Turning to Colistin, the MIC in experiment [1] (setting [13]) was 0.5 µg/mL; in [2] (setting [14]), 0.5 µg/mL; in experiment [3] (setting [15]), 16 µg/mL; in experiment [3] (setting [16]) it was 0.5 µg/mL; in experiment [3] (setting [17]) it was 0.5 µg/mL; in [3] (setting [18]) it was 0.5 µg/mL. In addition, the minimum inhibitory concentration (MIC) in experiment [4] (setting [19]) was 16 µg/mL; in experiment [4] (setting [20]) it was 16 µg/mL; in experiment [4] (setting [21]), 0.5 µg/mL; in [4] (setting [22]), 0.5 µg/mL; in experiment [4] (setting [23]), 1 µg/mL; in [5] (setting [24]), 0.5 µg/mL. In addition, the MIC in experiment [6] (setting [25]) is listed as greater than 128 µg/mL; in [7] (setting [26]) it was greater than 128 µg/mL; in experiment [8] (setting [27]), 2 µg/mL; in experiment [9] (setting [28]), greater than 128 µg/mL; in experiment [10] (setting [29]), 0.5 µg/mL; in experiment [11] (setting [30]) it was 0.5 µg/mL. Also, in [12] (mice with intraperitoneal infection by Escherichia coli ATCC BAA2469, intravenous), the “effective dose of in vivo antibacterial activity” value is given as “below 1.5 mg/kg”. In addition, the Animal survival rate was determined as 0% in experiment [12] (dose 0.35 mg/kg), 20% in experiment [12] (dose 0.7 mg/kg) and 80% in experiment [12] (dose 1.4 mg/kg). The “Number of surviving animals” value in experiment [12] (dose 0.35 mg/kg) is 0 individuals; in [12] (dose 0.7 mg/kg), 1 individuals; in [12] (dose 1.4 mg/kg), 4 individuals.

For the compound Polymyxin B, the minimum inhibitory concentration (MIC) came to 2 µg/mL in experiment [1] (setting [13]); 1 µg/mL in experiment [2] (setting [14]); 8 µg/mL in [3] (setting [15]); 0.5 µg/mL in experiment [3] (setting [16]); 1 µg/mL in [3] (setting [17]); 0.5 µg/mL in experiment [3] (setting [18]). Also, the MIC is reported as 16 µg/mL in [4] (setting [19]); 16 µg/mL in experiment [4] (setting [20]); 1 µg/mL in experiment [4] (setting [21]); 1 µg/mL in experiment [4] (setting [22]); 1 µg/mL in experiment [4] (setting [23]); 1 µg/mL in [5] (setting [24]). Moreover, the minimum inhibitory concentration (MIC) in [6] (setting [25]) is given as greater than 128 µg/mL; in experiment [7] (setting [26]), greater than 128 µg/mL; in [8] (setting [27]), 2 µg/mL; in experiment [9] (setting [28]) it was greater than 128 µg/mL; in experiment [10] (setting [29]) it was 2 µg/mL; in experiment [11] (setting [30]), 1 µg/mL.
